The assay concerns the target T1, GAK kinase (Homo sapiens, UniProt O14976).
T1 construct: made in house; host or cells: E. coli host derived from the BL21 strain, infected with T7 phage
T1 sequence (O14976 1-1311): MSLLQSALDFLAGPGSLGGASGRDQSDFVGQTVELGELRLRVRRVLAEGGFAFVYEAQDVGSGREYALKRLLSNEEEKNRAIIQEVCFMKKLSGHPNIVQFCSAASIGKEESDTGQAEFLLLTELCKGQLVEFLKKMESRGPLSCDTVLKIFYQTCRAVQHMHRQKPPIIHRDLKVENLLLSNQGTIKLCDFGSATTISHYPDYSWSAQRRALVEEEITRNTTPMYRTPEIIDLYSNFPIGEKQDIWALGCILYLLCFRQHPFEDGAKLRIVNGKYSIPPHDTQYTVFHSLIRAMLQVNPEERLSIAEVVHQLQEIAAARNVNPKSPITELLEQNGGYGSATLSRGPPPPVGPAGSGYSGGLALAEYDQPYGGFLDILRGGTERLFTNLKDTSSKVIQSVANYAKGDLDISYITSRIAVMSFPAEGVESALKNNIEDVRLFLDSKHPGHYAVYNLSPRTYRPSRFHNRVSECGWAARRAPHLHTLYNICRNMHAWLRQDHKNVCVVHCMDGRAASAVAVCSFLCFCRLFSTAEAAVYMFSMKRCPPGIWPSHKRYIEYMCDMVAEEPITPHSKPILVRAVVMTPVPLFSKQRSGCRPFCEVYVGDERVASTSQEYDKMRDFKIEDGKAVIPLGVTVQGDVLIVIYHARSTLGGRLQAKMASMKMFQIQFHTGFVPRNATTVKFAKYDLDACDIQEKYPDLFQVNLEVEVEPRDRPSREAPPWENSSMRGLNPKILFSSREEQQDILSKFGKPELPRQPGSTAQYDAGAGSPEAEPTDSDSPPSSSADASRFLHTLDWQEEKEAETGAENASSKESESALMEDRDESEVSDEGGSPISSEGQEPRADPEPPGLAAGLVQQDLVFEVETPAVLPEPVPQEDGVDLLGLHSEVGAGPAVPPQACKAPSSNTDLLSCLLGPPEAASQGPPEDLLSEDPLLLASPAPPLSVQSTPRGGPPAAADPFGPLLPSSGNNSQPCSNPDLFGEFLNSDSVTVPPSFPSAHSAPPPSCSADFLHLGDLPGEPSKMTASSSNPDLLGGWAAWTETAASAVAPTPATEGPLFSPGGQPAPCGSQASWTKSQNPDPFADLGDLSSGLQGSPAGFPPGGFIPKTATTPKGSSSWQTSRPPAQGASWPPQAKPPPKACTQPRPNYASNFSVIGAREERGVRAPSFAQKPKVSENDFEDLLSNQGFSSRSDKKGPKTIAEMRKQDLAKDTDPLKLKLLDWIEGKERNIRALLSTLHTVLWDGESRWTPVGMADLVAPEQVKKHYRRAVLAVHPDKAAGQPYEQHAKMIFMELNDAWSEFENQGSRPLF
In words: GAK binding assay (T7 phage kinase competition binding). The settings on record: for remaining binding at 10 µM: single concentration of 10 μM, lower numbers indicate stronger hits, read-out: % Ctrl; for Kd: determined for selected compounds with % control <5 at 10 μM. As for the experimental part:
The compounds of the invention were assayed for their GAK kinase binding affinity using the protocols, as described in Fabian, M. A. et al. A small molecule-kinase interaction map for clinical kinase inhibitors. Nat. Biotechnol.
T7 kinase-tagged phage strains were grown in parallel in 24- or 96-well blocks in an E. coli host derived from the BL21 strain. E. coli were grown to log phase and infected with T7 phage from a frozen stock (multiplicity of infection ˜0.1) and incubated with shaking at 32° C. until lysis (˜90 min). The lysates were centrifuged (6,000 g) and filtered ([…]) to remove cell debris. […] The liganded beads were blocked with excess biotin and washed with blocking buffer (SeaBlock (Pierce), 1% BSA, 0.05% Tween 20, 1 mM DTT) to remove unbound ligand and to reduce nonspecific phage binding. […] Test compounds were prepared as 1,000× stocks in DMSO and rapidly diluted into the aqueous environment (0.1% DMSO final). DMSO (0.1%) was added to control assays lacking a test compound. All reactions were carried out in polystyrene 96-well plates that had been pretreated with blocking buffer in a final volume of 0.1 ml. […] The phage titer in the eluates was measured by standard plaque assays or by quantitative PCR.
The compounds were tested at a single concentration of 10 μM.
[formula] Binding Constant Measurements
Kd(probe) is the binding constant for the interaction between the kinase and the immobilized ligand, [Probe] is the concentration of the immobilized ligand and [test]1/2 is the concentration of the free test compound at the midpoint of the transition. If [Probe] is below Kd(probe) the expression simplifies to Kd(test)=[test]1/2. Under these conditions the binding constants measured for the interaction between kinases and test compounds (Kd(test)) are therefore independent of the affinity of the immobilized ligand for the kinase (Kd(probe)). T7 phage grow to a titer of 10^8-10^10 plaque forming units (PFU)/ml, and the concentration of phage-tagged kinase in the binding reaction is therefore in the low picomolar range. […] Clustering and visualization was performed with Cluster 3.0 (M. Eisen, Stanford University) and Mapletree software (M. Eisen, Stanford University; L. Simirenko, Lawrence Berkeley National Lab).

The values that follow come from patent US9518066B2, “GAK modulators” (KATHOLIEKE UNIVERSITEIT LEUVEN, priority 2013, dated 2016).

As for `Nc1snc2cc(Br)cnc12` [Example 3, 3-amino-6-bromo-Isothiazolo[4,3-b]pyridine], the remaining binding at 10 µM was 97%.

Consider `Brc1cnc2c(N3CCOCC3)snc2c1` [Example 11, 6-bromo-3-morpholino-isothiazolo[4,3-b]pyridine], for which the remaining binding at 10 µM came to 50%.

For `CCOC(=O)N1CCC(Nc2snc3cc(-c4ccc(OC)c(OC)c4)cnc23)CC1` [Example 72, ethyl 4-(6-(3,4-dimethoxyphenyl)isothiazolo[4,3-b]pyridin-3-ylamino)piperidine-1-carboxylate], the remaining binding at 10 µM came to 40%.

For `COc1ccc(-c2cnc3c(NCCCCCO)snc3c2)cc1OC` [Example 67, 5-(6-(3,4-dimethoxyphenyl)isothiazolo[4,3-b]pyridin-3-ylamino)pentan-1-ol], binding was put at a Kd of 210 nM and the remaining binding at 10 µM turned out to be 0.85%. For `COc1snc2cc(Br)cnc12` [Example 14, 3-methoxy-6-bromo-isothiazolo[4,3-b]pyridine], the remaining binding at 10 µM stood at 100%.

As for `CCOc1snc2cc(-c3cc(OC)c(OC)cc3Br)cnc12` [Example 87, 6-(2-bromo-4,5-dimethoxyphenyl)-3-ethoxyisothiazolo[4,3-b]pyridine], binding was put at a Kd of 330 nM and the remaining binding at 10 µM is 4.3%.

On to `COC(=O)c1ccc(-c2cnc3c(N4CCOCC4)snc3c2)cc1OC` [Example 46, Methyl 2-methoxy-4-(3-morpholinoisothiazolo[4,3-b]pyridin-6-yl)benzoate], for which the affinity, expressed as Kd, was 19 nM and the remaining binding at 10 µM came out at 2.8%.

As to `COc1ccc(-c2cnc3c(OC)snc3c2)cc1OC` [Example 36, 3-methoxy-6-(3,4-dimethoxyphenyl)-isothiazolo[4,3-b]pyridine], the remaining binding at 10 µM amounted to 19%. As for `CCN(CC)c1snc2cc(-c3ccc(OC)c(OC)c3)cnc12` [Example 79, 6-(3,4-dimethoxyphenyl)-N,N-diethylisothiazolo[4,3-b]pyridin-3-amine], the Kd worked out at 210 nM and the remaining binding at 10 µM was determined as 0.05%.

`COc1ccc(-c2cnc3c(-c4ccccc4)snc3c2)cc1OC` [Example 82, 6-(3,4-dimethoxyphenyl)-3-phenylisothiazolo[4,3-b]pyridine]: the Kd is 260 nM and the remaining binding at 10 µM is 0.15%. Take “6-bromo-6-ethanolamino-isothiazolo[4,3-b]pyridine [Example 12]”: where the note is “10 µM”, the “% Ctrl” value was found to be 62%. Turning to `CNC(=O)c1ccc(-c2cnc3c(N4CCOCC4)snc3c2)cc1` [Example 54, N-Methyl-4-(3-morpholinoisothiazolo[4,3-b]pyridin-6-yl)benzamide], the Kd came out at 88 nM and the remaining binding at 10 µM came to 0.05%. Taken in the same sequence, the figures for `COc1ccc(-c2cnc3c(NCC(O)CO)snc3c2)cc1OC` (stereo not shown) [Example 71, 3-(6-(3,4-dimethoxyphenyl)isothiazolo[4,3-b]pyridin-3-ylamino)propane-1,2-diol] were 330 nM and 2.6%. As to `COC(=O)c1ccc(-c2cnc3c(N4CCOCC4)snc3c2)cc1` [Example 53, Methyl 4-(3-morpholinoisothiazolo[4,3-b]pyridin-6-yl)benzoate], the remaining binding at 10 µM was determined as 9%. `COc1cccc(-c2cnc3c(N4CCOCC4)snc3c2)c1` [Example 61, 4-(6-(3-methoxyphenyl)isothiazolo[4,3-b]pyridin-3-yl)morpholine]: the affinity, expressed as Kd, was 180 nM and the remaining binding at 10 µM was found to be 0.05%. As to `COc1ccc(-c2cnc3c(N4CCC5(CC4)OCCO5)snc3c2)cc1OC` [Example 81, 8-(6-(3,4-dimethoxyphenyl)isothiazolo[4,3-b]pyridin-3-yl)-1,4-dioxa-8-azaspiro[4.5]decane], the remaining binding at 10 µM is 12%. The same measure, in the same setting: the figure for `COc1snc2cc(-c3ccccc3)cnc12` [Example 33, 3-methoxy-6-phenyl-isothiazolo[4,3-b]pyridine] is 9.4%. For `COc1ccc(-c2cnc3c(-c4ccsc4)snc3c2)cc1OC` [Example 84, 6-(3,4-dimethoxyphenyl)-3-(thiophen-3-yl)isothiazolo[4,3-b]pyridine], the Kd was 140 nM and the remaining binding at 10 µM was 0%. With `COc1ccc(-c2cnc3c(N4CCOCC4)snc3c2)cc1` [Example 63, 4-(6-(4-methoxyphenyl)isothiazolo[4,3-b]pyridin-3-yl)morpholine], binding was characterised by a dissociation constant (Kd) of 140 nM and the remaining binding at 10 µM was 0.6%. Turning to `COc1ccc(-c2cnc3c(-c4ccncc4)snc3c2)cc1OC` [Example 83, 6-(3,4-dimethoxyphenyl)-3-(pyridin-4-yl)isothiazolo[4,3-b]pyridine], the Kd was 52 nM and the remaining binding at 10 µM was 0.05%.

As to `COc1ccc(-c2cnc3c(N4CCCC(O)C4)snc3c2)cc1OC` (stereo not shown) [Example 68, 1-(6-(3,4-dimethoxyphenyl)isothiazolo[4,3-b]pyridin-3-yl)piperidin-3-ol], the Kd amounted to 69 nM and the remaining binding at 10 µM was found to be 0.05%. For `COc1cc(Br)c(-c2cnc3c(N4CCOCC4)snc3c2)cc1OC` [Example 60, 4-(6-(2-bromo-4,5-dimethoxyphenyl)isothiazolo[4,3-b]pyridin-3-yl)morpholine], binding was characterised by a dissociation constant (Kd) of 180 nM and the remaining binding at 10 µM was determined as 1.1%. For the compound `COc1snc2cc(-c3ccsc3)cnc12` [Example 37, 3-methoxy-6-(3-thienyl)-isothiazolo[4,3-b]pyridine], the remaining binding at 10 µM is 22%. The same measure, in the same setting: the figure for `COc1cc(Br)c(-c2cnc3c(N4CCC(C)CC4)snc3c2)cc1OC` [Example 86, 6-(2-bromo-4,5-dimethoxyphenyl)-3-(4-methylpiperidin-1-yl)isothiazolo[4,3-b]pyridine] is 92%; for `COc1snc2cc(-c3cccnc3)cnc12` [Example 35, 3-methoxy-6-(3-pyridyl)-isothiazolo[4,3-b]pyridine] it is 93%; for `COc1ccc(-c2cnc3csnc3c2)cc1OC` [Example 85, 6-(3,4-dimethoxyphenyl)isothiazolo[4,3-b]pyridine] it is 31%. On to `COc1ccc(-c2cnc3c(N4CCOCC4)snc3c2)cc1OC(C)=O` [Example 62, 2-methoxy-5-(3-morpholinoisothiazolo[4,3-b]pyridin-6-yl)phenyl acetate], for which binding was put at a Kd of 82 nM and the remaining binding at 10 µM worked out at 0%.

With `COc1ccc(-c2cnc3c(N4CCC(=O)CC4)snc3c2)cc1OC` [Example 65, 1-(6-(3,4-dimethoxyphenyl)isothiazolo[4,3-b]pyridin-3-yl)piperidin-4-one], the dissociation constant Kd stood at 31 nM and the remaining binding at 10 µM was found to be 0%.
